The values below come from the supplement of paper PMC10307832.

Holding throughout (experiment): relative viability (nuclei count vs DMSO), 5 days (fraction); higher = more cells survive
Compound in the test “NVP-TAE684 + Pictilisib”: COc1cc(N2CCC(N3CCN(C)CC3)CC2)ccc1Nc1ncc(Cl)c(Nc2ccccc2S(=O)(=O)C(C)C)n1 [NVP-TAE684] + CS(=O)(=O)N1CCN(Cc2cc3nc(-c4cccc5[nH]ncc45)nc(N4CCOCC4)c3s2)CC1 [Pictilisib] (partner 1 µM)
The essentials: (§1)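 Values are medians from duplicate plates. Each reflects relative viability, defined as the nuclei count of treated wells over that of vehicle wells. Lung cancer cell lines in 1536-well plates were pin-tool dosed one day after seeding with one drug alone or with a fixed anchor-drug dose plus five library-drug doses (not always all listed) in √10 steps, then fixed, stained and imaged at 4× after 5 days.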

Compound in the test “CUDC-101 + Linsitinib”: C#Cc1cccc(Nc2ncnc3cc(OC)c(OCCCCCCC(=O)NO)cc23)c1 [CUDC-101] + C[C@]1(O)C[C@@H](c2nc(-c3ccc4ccc(-c5ccccc5)nc4c3)c3c(N)nccn32)C1 [Linsitinib] (partner 1 µM)
Put shortly:
as §1

Compound in the test “CUDC-101 + Olaparib”: C#Cc1cccc(Nc2ncnc3cc(OC)c(OCCCCCCC(=O)NO)cc23)c1 [CUDC-101] + O=C(c1cc(Cc2n[nH]c(=O)c3ccccc23)ccc1F)N1CCN(C(=O)C2CC2)CC1 [Olaparib] (partner 8 µM)
The essentials: as §1

Compound in the test “CUDC-101 + Luminespib”: C#Cc1cccc(Nc2ncnc3cc(OC)c(OCCCCCCC(=O)NO)cc23)c1 [CUDC-101] + CCNC(=O)c1noc(-c2cc(C(C)C)c(O)cc2O)c1-c1ccc(CN2CCOCC2)cc1 [Luminespib] (partner 0.01 µM)
Put shortly:
as §1

Regarding SK-LU-1, the relative viability in the test with NVP-TAE684 + Pictilisib (first compound 0.2 µM) is 0.501; with NVP-TAE684 + Pictilisib (first compound 0.6325 µM), 0.524; in the test with NVP-TAE684 + Pictilisib (first compound 2 µM), 0.444; in the test with CUDC-101 + Linsitinib (first compound 0.01 µM), 1.17; with CUDC-101 + Linsitinib (first compound 0.03162 µM), 0.942; in the test with CUDC-101 + Linsitinib (first compound 0.1 µM) it was 1.08. The relative viability stood at 0.868 with CUDC-101 + Linsitinib (first compound 0.3162 µM); 0.773 with CUDC-101 + Linsitinib (first compound 1 µM); 0.473 with CUDC-101 + Olaparib (first compound 0.01 µM); 0.503 in the test with CUDC-101 + Olaparib (first compound 0.03162 µM); 0.421 with CUDC-101 + Olaparib (first compound 0.1 µM); 0.487 with CUDC-101 + Olaparib (first compound 0.3162 µM). In addition, the relative viability in the test with CUDC-101 + Olaparib (first compound 1 µM) came to 0.434; with CUDC-101 + Luminespib (first compound 0.01 µM), 0.188; with CUDC-101 + Luminespib (first compound 0.03162 µM), 0.203; with CUDC-101 + Luminespib (first compound 0.1 µM), 0.213; with CUDC-101 + Luminespib (first compound 0.3162 µM), 0.206; with CUDC-101 + Luminespib (first compound 1 µM) it was 0.216.

As for SK-MES-1, the relative viability in the test with NVP-TAE684 + Pictilisib (first compound 0.2 µM) came to 0.475; with NVP-TAE684 + Pictilisib (first compound 0.6325 µM), 0.393; with NVP-TAE684 + Pictilisib (first compound 2 µM), 0.309; with CUDC-101 + Linsitinib (first compound 0.01 µM), 1.17; in the test with CUDC-101 + Linsitinib (first compound 0.03162 µM), 1.13; in the test with CUDC-101 + Linsitinib (first compound 0.1 µM) it was 1.05. Further, the relative viability came to 1.1 with CUDC-101 + Linsitinib (first compound 0.3162 µM); 0.742 with CUDC-101 + Linsitinib (first compound 1 µM); 0.697 in the test with CUDC-101 + Olaparib (first compound 0.01 µM); 0.775 with CUDC-101 + Olaparib (first compound 0.03162 µM); 0.727 with CUDC-101 + Olaparib (first compound 0.1 µM); 0.658 with CUDC-101 + Olaparib (first compound 0.3162 µM). For the same cell line, the relative viability worked out at 0.512 with CUDC-101 + Olaparib (first compound 1 µM); 0.854 with CUDC-101 + Luminespib (first compound 0.01 µM); 0.72 in the test with CUDC-101 + Luminespib (first compound 0.03162 µM); 0.755 with CUDC-101 + Luminespib (first compound 0.1 µM); 0.567 with CUDC-101 + Luminespib (first compound 0.3162 µM); 0.52 with CUDC-101 + Luminespib (first compound 1 µM).

For the cell line SW 1573, the relative viability was 0.571 with NVP-TAE684 + Pictilisib (first compound 0.2 µM); 0.471 with NVP-TAE684 + Pictilisib (first compound 0.6325 µM); 0.39 in the test with NVP-TAE684 + Pictilisib (first compound 2 µM); 0.867 with CUDC-101 + Linsitinib (first compound 0.01 µM); 0.919 with CUDC-101 + Linsitinib (first compound 0.03162 µM); 0.915 in the test with CUDC-101 + Linsitinib (first compound 0.1 µM). Further, the relative viability is 0.955 in the test with CUDC-101 + Linsitinib (first compound 0.3162 µM); 0.637 with CUDC-101 + Linsitinib (first compound 1 µM); 0.634 in the test with CUDC-101 + Olaparib (first compound 0.01 µM); 0.477 with CUDC-101 + Olaparib (first compound 0.03162 µM); 0.587 with CUDC-101 + Olaparib (first compound 0.1 µM); 0.603 with CUDC-101 + Olaparib (first compound 0.3162 µM). The relative viability in the test with CUDC-101 + Olaparib (first compound 1 µM) was found to be 0.349; with CUDC-101 + Luminespib (first compound 0.01 µM) it was 0.238; with CUDC-101 + Luminespib (first compound 0.03162 µM), 0.252; in the test with CUDC-101 + Luminespib (first compound 0.1 µM), 0.516; in the test with CUDC-101 + Luminespib (first compound 0.3162 µM) it was 0.187; in the test with CUDC-101 + Luminespib (first compound 1 µM) it was 0.164.
